US9187465B2, “Oxazole tyrosine kinase inhibitors” (Sareum Limited, priority 2007, dated 2015)

What was measured:
Assay type in all cases: biochemical
human FLT3 = target: T1, human FLT3 (Homo sapiens, UniProt P36888); experiment: FLT3 kinase assay (DELFIA enzyme inhibition)
T1 construct: a construct expressing the human FLT3 (564-993) with an amino terminal GST tag; host or cells: Sf9 insect cells (baculovirus)
T1 sequence (P36888 564-993): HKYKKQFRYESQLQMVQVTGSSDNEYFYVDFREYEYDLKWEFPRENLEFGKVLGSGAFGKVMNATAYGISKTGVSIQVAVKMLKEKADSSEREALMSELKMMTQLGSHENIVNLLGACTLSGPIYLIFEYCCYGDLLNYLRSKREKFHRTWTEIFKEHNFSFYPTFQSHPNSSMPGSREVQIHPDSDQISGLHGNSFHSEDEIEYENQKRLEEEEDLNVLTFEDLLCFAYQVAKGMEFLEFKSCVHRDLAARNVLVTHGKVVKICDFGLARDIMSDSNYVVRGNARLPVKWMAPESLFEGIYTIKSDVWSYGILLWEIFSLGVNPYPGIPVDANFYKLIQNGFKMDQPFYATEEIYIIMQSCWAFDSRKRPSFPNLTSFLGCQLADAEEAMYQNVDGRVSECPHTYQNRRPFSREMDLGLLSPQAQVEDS
Protocol: A GST-kinase fusion protein of 70 KDa was produced using sf9 baculovirus expression system, with a construct expressing the human FLT3 (564-993) with an amino terminal GST tag. The protein was purified by one-step affinity chromatography using glutathione-agarose.
FLT3 enzyme activity is determined using a Dissociation Enhanced Lanthanide Fluorescent Immunoassay (DELFIA) with a peptide substrate derived from the Gastrin Precursor (Tyr 87) peptide […] with a core sequence: EAYGW.
The amount of phosphorylated peptide produced is detected by means of a phospho-Tyrosine specific Europium-labelled antibody using Time-Resolved Fluorescence at Excitation 360-35 nm and Emission 620-35 nm.
Assay reactions are set up in a 25 uL final volume on a 96 well plate. […] The reaction is allowed to proceed for 30 minutes at room temperature before stopping with 100 μL Stop solution comprising of 100 mM EDTA, 1×BSA blocker in TBS (Perbio) and 0.05% Surfact-Amps20 (Perbio).
The stopped reaction is transferred to a black 96-well Neutravidin-coated plate (Perbio) and incubated for 30 minutes to capture the biotinylated peptide substrate. After washing wells 3 times with 200 uL TBS/T buffer, Anti-Phospho-Tyr-100 antibody labelled with Eu—N1 (Perkin Elmer AD0159) is added to all wells for 60 minutes at room temperature. After a repeat washing step, DELFIA Enhancement solution (Perkin Elmer) is added to all wells for 5 minutes and the fluorescence measured on a plate reader Analyst HT (Molecular Devices).
The % inhibition of the activity is calculated and plotted in order to determine the concentration of test compound required to inhibit 50% of the enzyme activity (IC50).

human Aurora A = target: T2, human Aurora A (Homo sapiens, UniProt O14965); experiment: Aurora A kinase assay (DELFIA enzyme inhibition); details: read-out: Aurora A IC50
T2 construct: Histidine tag (N); host or cells: Sf9 insect cells (baculovirus)
T2 sequence (O14965 1-403): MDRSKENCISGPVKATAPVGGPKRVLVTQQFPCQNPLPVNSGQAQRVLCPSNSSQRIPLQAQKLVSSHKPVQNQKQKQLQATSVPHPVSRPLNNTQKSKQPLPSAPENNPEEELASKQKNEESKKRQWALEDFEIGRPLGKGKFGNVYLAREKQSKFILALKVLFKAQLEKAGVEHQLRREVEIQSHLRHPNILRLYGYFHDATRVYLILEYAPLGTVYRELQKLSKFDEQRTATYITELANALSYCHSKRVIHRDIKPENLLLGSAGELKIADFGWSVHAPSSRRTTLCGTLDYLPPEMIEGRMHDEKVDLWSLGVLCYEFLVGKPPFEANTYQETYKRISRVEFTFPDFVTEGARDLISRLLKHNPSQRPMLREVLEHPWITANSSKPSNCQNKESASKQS
Summary of the method: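 DELFIA read-out (time-resolved Eu fluorescence, 620 nm emission) after Neutravidin capture of biotinylated peptide substrate and antibody detection. Reaction: Ni-agarose-purified Aurora A, 30 min at room temperature, stopped with 100 mM EDTA.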

human FLT4 = target: T3, human FLT4 (Homo sapiens, UniProt P35916); experiment: FLT4 kinase assay (DELFIA enzyme inhibition); details: read-out: FLT4 IC50
T3 construct: a construct expressing the human FLT4 (789-1207) with an amino terminal GST tag; host or cells: Sf9 insect cells (baculovirus)
T3 sequence (P35916 789-1207): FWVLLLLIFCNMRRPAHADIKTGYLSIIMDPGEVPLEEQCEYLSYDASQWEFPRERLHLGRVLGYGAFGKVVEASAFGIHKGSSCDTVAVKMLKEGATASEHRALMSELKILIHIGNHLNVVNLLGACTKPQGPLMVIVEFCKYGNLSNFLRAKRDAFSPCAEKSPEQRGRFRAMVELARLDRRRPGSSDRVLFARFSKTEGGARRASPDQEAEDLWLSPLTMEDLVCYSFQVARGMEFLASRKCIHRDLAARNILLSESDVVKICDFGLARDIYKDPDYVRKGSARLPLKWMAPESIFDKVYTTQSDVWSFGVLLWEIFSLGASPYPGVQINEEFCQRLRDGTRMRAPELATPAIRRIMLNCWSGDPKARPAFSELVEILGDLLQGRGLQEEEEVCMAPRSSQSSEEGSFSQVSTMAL
Summary of the method: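 Read-out is DELFIA: biotinylated MET Tyr1253-derived peptide captured on Neutravidin, phosphotyrosine detected by Eu-antibody time-resolved fluorescence. Enzyme is Sf9-expressed GST-FLT4 (789-1207), reacting 30 min at room temperature before EDTA stop. IC50 derived from plotted % inhibition.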

SMILES | IC50 (human FLT3) | IC50 (human Aurora A) | IC50 (human FLT4)
COc1ccc(-c2nc(-c3c[nH]c4ccc(OC)cc34)[nH]c2C(N)=O)cc1 [Example B-2, 2-(5-methoxy-1H-indol-3-yl)-4-(4-methoxyphenyl)-1H-imidazole-5-carboxamide] | < 10 µM | < 100 µM | < 10 µM
COc1ccc(-c2oc(-c3c[nH]c4ccccc34)nc2C(N)=O)cc1 [Example E-3, 2-(1H-indol-3-yl)-5-(4-methoxyphenyl)oxazole-4-carboxamide] | < 100 µM | < 100 µM | < 10 µM
NC(=O)c1nc(-c2c[nH]c3ccccc23)oc1-c1cccs1 [Example E-4, 2-(1H-indol-3-yl)-5-(thiophen-2-yl)oxazole-4-carboxamide] | < 100 µM | < 100 µM | < 10 µM
NC(=O)c1nc(-c2c(F)cccc2F)oc1-c1ccccn1 [Example F-2, 2-(2,6-difluorophenyl)-5-(pyridin-2-yl)oxazole-4-carboxamide] | < 100 µM | – | < 100 µM
CN(C)c1ccc(-c2oc(-c3c(F)cccc3F)nc2C(N)=O)cn1 [Example F-7, 2-(2,6-difluorophenyl)-5-(6-(dimethylamino)pyridin-3-yl)oxazole-4-carboxamide] | < 100 µM | – | < 10 µM
NC(=O)c1nc(-c2c(F)cccc2F)oc1-c1cccnc1 [Example F-9, 2-(2,6-difluorophenyl)-5-(pyridin-3-yl)oxazole-4-carboxamideH] | < 100 µM | < 100 µM | < 10 µM
CN1CCN(Cc2ccc(-c3oc(-c4c(F)cccc4F)nc3C(N)=O)cc2)CC1 [Example F-10, 2-(2,6-difluorophenyl)-5-(4-((4-methylpiperazin-1-yl)methyl)phenyl)oxazole-4-carboxamide] | < 100 µM | < 10 µM | < 10 µM
CC(=O)N1CCN(Cc2ccc(-c3oc(-c4c(F)cccc4F)nc3C(N)=O)cc2)CC1 [Example F-11, 5-(4-((4-acetylpiperazin-1-yl)methyl)phenyl)-2-(2,6-difluorophenyl)oxazole-4-carboxamide] | < 100 µM | < 10 µM | < 10 µM
NC(=O)c1nc(-c2c(F)cccc2F)oc1-c1ccc(COCCN2CCOCC2)cc1 [Example F-12, 2-(2,6-difluorophenyl)-5-(4-((2-morpholinoethoxy)methyl)phenyl)oxazole-4-carboxamide] | < 100 µM | < 10 µM | < 10 µM
NC(=O)c1nc(-c2c(F)cccc2F)oc1-c1ccc(OCCN2CCCCC2)cc1 [Example F-14, 2-(2,6-difluorophenyl)-5-(4-(2-(piperidin-1-yl)ethoxy)phenyl)oxazole-4-carboxamide] | < 10 µM | < 10 µM | < 10 µM
CN(C)CCOc1ccc(-c2oc(-c3c(F)cccc3F)nc2C(N)=O)cc1 [Example F-15, 2-(2,6-difluorophenyl)-5-(4-(2-(dimethylamino)ethoxy)phenyl)oxazole-4-carboxamide] | < 10 µM | < 10 µM | < 10 µM
NCc1ccc(-c2oc(-c3c(F)cccc3F)nc2C(N)=O)cc1 [Example F-16, 5-(4-(aminomethyl)phenyl)-2-(2,6-difluorophenyl)oxazole-4-carboxamide] | < 100 µM | < 10 µM | < 10 µM
NC(=O)c1nc(-c2c(F)cccc2F)oc1-c1ccc(N2CCOCC2)nc1 [Example F-19, 2-(2,6-difluorophenyl)-5-(6-morpholinopyridin-3-yl)oxazole-4-carboxamide] | < 100 µM | – | < 100 µM

Now from value to molecule:

IC50 (human FLT3) | IC50 (human Aurora A) | IC50 (human FLT4) | SMILES
< 10 µM | < 10 µM | < 10 µM | NC(=O)c1nc(-c2c(F)cccc2F)oc1-c1ccc(N)cc1 [Example F-22, 5-(4-aminophenyl)-2-(2,6-difluorophenyl)oxazole-4-carboxamide]
< 10 µM | < 10 µM | < 10 µM | NC(=O)c1nc(-c2c(F)cccc2Cl)oc1-c1ccc(OCCN2CCCCC2)cc1 [Example F-24, 2-(2-chloro-6-fluorophenyl)-5-(4-(2-(piperidin-1-yl)ethoxy)phenyl)oxazole-4-carboxamide]
< 10 µM | < 10 µM | < 10 µM | NC(=O)c1nc(-c2c(Cl)cccc2Cl)oc1-c1ccc(OCCN2CCCCC2)cc1 [Example F-25, 2-(2,6-dichlorophenyl)-5-(4-(2-(piperidin-1-yl)ethoxy)phenyl)oxazole-4-carboxamide]
< 10 µM | < 10 µM | < 10 µM | NC(=O)c1nc(-c2ccccc2F)oc1-c1ccc(OCCN2CCCCC2)cc1 [Example F-26, 2-(2-fluorophenyl)-5-(4-(2-(piperidin-1-yl)ethoxy)phenyl)oxazole-4-carboxamide]
< 10 µM | < 10 µM | < 10 µM | NC(=O)c1nc(-c2ccccc2F)oc1-c1ccc(OCCN2CCOCC2)cc1 [Example F-27, 2-(2-fluorophenyl)-5-(4-(2-morpholinoethoxy)phenyl)oxazole-4-carboxamide]
< 100 µM | – | < 10 µM | COc1ccc(-c2oc(-c3ccccc3)nc2C(N)=O)cc1 [Example M-2, 5-(4-methoxyphenyl)-2-phenyloxazole-4-carboxamide]
< 100 µM | – | < 100 µM | COc1ccc(-c2oc(-c3ccc(C#N)cc3)nc2C(N)=O)cc1 [Example M-9, 2-(4-cyanophenyl)-5-(4-methoxyphenyl)oxazole-4-carboxamide]
< 100 µM | – | – | COc1ccc(-c2oc(-c3ccc(S(C)(=O)=O)cc3)nc2C(N)=O)cc1 [Example M-11, 5-(4-methoxyphenyl)-2-(4-(methylsulfonyl)phenyl)oxazole-4-carboxamide]
< 100 µM | – | < 10 µM | COc1ccc(-c2oc(-c3cccc(NC(C)=O)c3)nc2C(N)=O)cc1 [Example N-3, 2-(3-acetamidophenyl)-5-(4-methoxyphenyl)oxazole-4-carboxamide]
< 100 µM | < 100 µM | – | COc1ccc(-c2oc(-c3cccc(C(F)(F)F)c3)nc2C(N)=O)cc1 [Example N-8, 5-(4-methoxyphenyl)-2-(3-(trifluoromethyl)phenyl)oxazole-4-carboxamide]
< 10 µM | – | < 10 µM | COc1ccc(Nc2oc(-c3c(F)cccc3F)nc2C(N)=O)cc1 [Example P-1, 2-(2,6-difluorophenyl)-5-(4-methoxyphenylamino)oxazole-4-carboxamide]
< 10 µM | < 10 µM | – | NC(=O)c1nc(-c2c(F)cccc2F)oc1Nc1ccc(N2CCOCC2)cc1 [Example Q-1, 2-(2,6-difluorophenyl)-5-(4-morpholinophenylamino)oxazole-4-carboxamide]
< 10 µM | < 100 µM | – | COc1ccc(-c2oc(Nc3cccc(OC)c3)nc2C(N)=O)cc1 [Example R-3, 5-(4-methoxyphenyl)-2-(3-methoxyphenylamino)oxazole-4-carboxamide]
< 100 µM | < 100 µM | – | CN1CCN(CCOc2ccc(-c3oc(-c4c(F)cccc4N4CCN(C)CC4)nc3C(N)=O)cc2)CC1 [Example S-2, 2-(2-fluoro-6-(4-methylpiperazin-1-yl)phenyl)-5-(4-(2-(4-methylpiperazin-1-yl)ethoxy)phenyl)oxazole-4-carboxamide]
